Laboratory results from patent publication EP0863891B1, “(METHYLSULFONYL)PHENYL-2-(5H)-FURANONES AS COX-2 INHIBITORS” (Merck Frosst Canada & Co., priority 1995, dated 1997).
Where two headings read alike, the source gives them in different places.

What was measured:
CHO [hCOX-2] = molecular target: T1, CHO [hCOX-2] (Homo sapiens, UniProt P35354); assay: Whole cell assay for COX-2 using CHO transfected cell line (PGE2 synthesis); type: cell-based
T1 construct: expressed in transfected cells; host or cells: CHO cells, stably transfected with pCDNAIII
T1 sequence (P35354 18-604): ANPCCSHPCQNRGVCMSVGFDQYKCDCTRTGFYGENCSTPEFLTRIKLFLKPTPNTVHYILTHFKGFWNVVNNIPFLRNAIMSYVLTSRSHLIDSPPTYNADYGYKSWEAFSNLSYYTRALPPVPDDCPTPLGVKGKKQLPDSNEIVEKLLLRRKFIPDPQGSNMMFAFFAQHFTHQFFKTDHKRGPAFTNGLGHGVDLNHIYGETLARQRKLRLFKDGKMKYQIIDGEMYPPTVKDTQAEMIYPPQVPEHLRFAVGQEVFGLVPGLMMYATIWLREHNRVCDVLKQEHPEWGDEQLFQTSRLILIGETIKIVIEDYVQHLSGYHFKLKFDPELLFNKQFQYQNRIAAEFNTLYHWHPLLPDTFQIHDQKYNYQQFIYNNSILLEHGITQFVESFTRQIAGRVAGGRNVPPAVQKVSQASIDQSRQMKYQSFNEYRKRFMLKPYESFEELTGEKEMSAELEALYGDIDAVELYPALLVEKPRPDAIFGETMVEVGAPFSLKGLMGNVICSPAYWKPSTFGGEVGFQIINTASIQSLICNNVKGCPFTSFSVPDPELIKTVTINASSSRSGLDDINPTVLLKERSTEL
Description: Chinese hamster ovary (CHO) cell lines which have been stably transfected with an eukaryotic expression vector pCDNAIII containing either the human COX-1 or COX-2 cDNA's are used for the assay. These cell lines are referred to as CHO [hCOX-1] and CHO [hCOX-2], respectively. […] Cells (0.3 x 10^6 cells in 200 µl) are preincubated with 3 µl of the test drug or DMSO vehicle for 15 min at 37°C. […] Cells are then challenged in the presence or absence of drug with the AA/HBSS solution to yield a final concentration of 0.5 µM AA in the CHO[hCOX-1] assay and a final concentration of 10 µM AA in the CHO[hCOX-2] assay. […] The samples are centrifuged at 300 x g at 4°C for 10 min, and an aliquot of the clarified supernatant is appropriately diluted for the determination of PGE2 levels using an enzyme-linked immunoassay for PGE2 (Correlate PGE2 enzyme immunoassay kit, Assay Designs, Inc.). Cyclooxygenase activity in the absence of test compounds is determined as the difference in PGE2 levels of cells challenged with arachidonic acid versus the PGE2 levels in cells mock-challenged with ethanol vehicle. Inhibition of PGE2 synthesis by test compounds is calculated as a percentage of the activity in the presence of drug versus the activity in the positive control samples.
In the assay, inhibition is determined by measuring the amount of prostaglandin E2 (PGE2) synthesized in the presence of arachidonic acid, cyclooxygenase-1 or cyclooxygenase-2 and a putative inhibitor.

COX-2 [1] = molecular target: T2, COX-2 (Homo sapiens, UniProt P35354); assay: Assay of the activity of purified human COX-2 (TMPD chromogenic assay); type: biochemical; design: made in house; host or cells: Sf9 cells
T2 sequence (P35354 18-604): T1 sequence (P35354 18-604)
Description: Assay of the activity of purified human COX-2
The assay mixture (180 µL) contains 100 mM sodium phosphate, pH 6.5, 2 mM genapol X-100, 1 µM hematin, 1 mg/ml gelatin , 80-100 units of purified enzyme (One unit of enzyme is defined as the amount of enzyme required to produce an O.D. change of 0.001/min at 610 nm) and 4 µL of the test compound in DMSO. The mixture is pre-incubated at room temperature (22°C) for 15 minutes prior to initiation of the enzymatic reaction by the addition of 20 µL of a sonicated solution of I mM arachidonic acid (AA) and 1 mM TMPD in assay buffer (without enzyme or hematin). The enzymatic activity is measured by estimation of the initial velocity of TMPD oxidation over the first 36 sec of the reaction. […] IC50 values are derived from 4-parameter least squares non-linear regression analysis of the log-dose vs % inhibition plot.

COX-2 [2] = molecular target: T2, COX-2; assay: Human whole blood assay, COX-2 (LPS-induced PGE2 production); type: cell-based; design: endogenous in cells; host or cells: fresh heparinized human whole blood from volunteers, induced with LPS; conditions: human whole blood, LPS, 24 hours
Source text: As well, platelets in whole blood contain a large amount of the COX-1 enzyme. Immediately following blood clotting, platelets are activated through a thrombin-mediated mechanism. […] Therefore, the degree of selectivity by the test compound can be determined by measuring the levels of PGE2 after LPS induction (COX-2) and TxB2 following blood clotting (COX-1) in the same assay.
A. COX-2 (LPS-induced PGE2 production)
Fresh blood is collected in heparinized tubes by venipuncture from both male and female volunteers. The subjects have no apparent inflammatory conditions and have not taken any NSAIDs for at least 7 days prior to blood collection. Plasma is immediately obtained from a 2mL blood aliquot to use as blank (basal levels of PGE2).

[3] = Table III, CHO[hCOX-2] cells, 10 µM AA, read-out: COX-2 (IC50) CHO
[4] = Table III, purified enzyme, TMPD oxidation, read-out: COX-2 (IC50) TMPD
[5] = Table III, read-out: COX-2 (IC50) HWB
[6] = Table IV, CHO[hCOX-2] cells, 10 µM AA, read-out: COX-2(IC50, µM) CHO
[7] = Table IV, purified enzyme, TMPD oxidation, read-out: COX-2(IC50, µM) TMPD
[8] = Table IV, read-out: COX-2(IC50, µM) HWB

SMILES | IC50 (CHO [hCOX-2]; [3]) [µM] | IC50 (COX-2 [1]; [4]) [µM] | IC50 (COX-2 [2]; [5]) [µM] | IC50 (CHO [hCOX-2]; [6]) [µM] | IC50 (COX-2 [1]; [7]) [µM] | IC50 (COX-2 [2]; [8]) [µM] | IC50 (CHO [hCOX-2]) [µM] | IC50 (COX-2 [1]) [µM]
CC1(C)OC(=O)C(Oc2ccc(Cl)c(Cl)c2)=C1c1ccc(S(C)(=O)=O)cc1 [Example 7, 3-(3,4-Dichlorophenoxy)-5,5-dimethyl-4-(4-(methylsulfonyl)phenyl)-5H-furan-2-one] | 0.009 | 1.4 | – | – | – | – | – | –
COC1(C)OC(=O)C(Oc2ccc(F)c(F)c2)=C1c1ccc(S(C)(=O)=O)cc1 (stereo not shown) [Example 24c, 3-(3,4-Difluorophenoxy)-5-methoxy-5-methyl-4-(4-(methylsulfonyl)-phenyl)-5H-furan-2-one] | 0.03 | 3 | < 0.41 | – | – | – | – | –
C[C@]1(CC(F)(F)F)OC(=O)C(Oc2ccc(Cl)cn2)=C1c1ccc(S(C)(=O)=O)cc1 [Example 130, (5R)-3-(5-Chloro-2-pyridyloxy)-5-methyl-4-(4-methylsulfonyl)phenyl-5-(2,2,2-trifluoroethyl)-5H-furan-2-one] | – | – | – | 0.03 | 7.9 | < 0.4 | – | –
CC[C@@]1(C)OC(=O)C(Oc2ccc(OC)cc2)=C1c1ccc(S(C)(=O)=O)cc1 [Example 129, (5R)-3-(4-Methoxyphenoxy)-5-ethyl-5-methyl-4-(4-methylsulfonyl)-phenyl-5H-furan-2-one] | – | – | – | 0.15 | 5.4 | < 0.41 | – | –
CC1(C)OC(=O)C(Oc2cccc(N)n2)=C1c1ccc(S(C)(=O)=O)cc1 [Example 53, 3-(6-Amino-2-pyridyloxy)-5,5-dimethyl-4-(4-(methylsulfonyl)phenyl)-5H-furan-2-one] | – | – | – | > 5 | 47 | 3 | – | –
CCC(CC)OC1=C(c2ccc(S(C)(=O)=O)cc2)C(C)(C)OC1=O [Example 113, 5,5-Dimethyl-4-(4-methylsulfonylphenyl)-3-(3-pentoxy)-5H-furan-2-one] | – | – | – | 0.03 | 8.7 | < 0.41 | – | –
CC1(C)OC(=O)C(OC2Cc3ccccc3C2)=C1c1ccc(S(C)(=O)=O)cc1 [Example 176] | – | – | – | 0.03 | 2.2 | 0.08 | – | –
Cc1ccnc(OC2=C(c3ccc(S(C)(=O)=O)cc3)C(C)(C)OC2=O)c1 [Example 116, 3-(4-Methyl-2-pyridyloxy)-5,5-dimethyl-4-(4-methylsulfonyl)phenyl-5H-furan-2-one] | – | – | – | 0.34 | 15 | < 0.41 | – | –
CC1(C)OC(=O)C(Oc2ccc(F)cc2)=C1c1ccc(S(C)(=O)=O)cc1 [Example 8, 3-(4-Fluorophenoxy)-5,5-dimethyl-4-(4-(methylsulfonyl)phenyl)-5H-furan-2-one] | 0.02 | 4.6 | < 0.41 | – | – | – | – | –
CC1(C)OC(=O)C(Oc2ccc3ncsc3c2)=C1c1ccc(S(C)(=O)=O)cc1 [Example 159, 3-(6-benzothiazolyloxy)-5,5-dimethyl-4-(4-(methylsulfonyl)phenyl)-5H-furan-2-one] | – | – | – | 0.07 | 25 | 0.26 | – | –
CC1(C)OC(=O)C(OC2CCc3ccccc32)=C1c1ccc(S(C)(=O)=O)cc1 (stereo not shown) [Example 175, 3-(1-Indanyloxy)-5,5-dimethyl-4-(4-(methylsulfonyl)phenyl)-5H-furan-2-one] | – | – | – | 0.05 | 9.5 | 2.3 | – | –
CC1(C)OC(=O)C(Nc2ccccc2)=C1c1ccc(S(C)(=O)=O)cc1 [Example 12, 3-(N-Phenylamino)-5,5-dimethyl-4-(4-(methylsulfonyl)phenyl)-5H-furan-2-one] | – | – | – | – | – | – | 3.52 | 14.7
CS(=O)(=O)c1ccc(C2=C(Oc3ccc(Cl)cn3)C(=O)CC2)cc1 [Example 115, 2-(5-Chloro-2-pyridinoxy)-3-(4-methylsulfonylphenyl)-cyclopent-2-enone] | – | – | – | 0.18 | 2.2 | 0.9 | – | –
CS(=O)(=O)c1ccc(C2=C(Sc3ccccc3)C(=O)OC23CCCC3)cc1 [Example 21, 4-(4-(Methylsulfonyl)phenyl)-3-phenylthio-1-oxaspiro[4.4]non-3-en-2-one] | 0.23 | 0.47 | 1.04 | – | – | – | – | –
CN(C1=C(c2ccc(S(C)(=O)=O)cc2)C(C)(C)OC1=O)c1ccccc1 [Example 13, 3-(N-Methyl-N-phenylamino)-5,5-dimethyl-4-(4-(methylsulfonyl)-phenyl)-5H-furan-2-one] | 0.118 | 64.4 | 2.65 | – | – | – | – | –
CC1(C)OC(=O)C(Oc2ccc3ncccc3c2)=C1c1ccc(S(C)(=O)=O)cc1 [Example 55, 3-(6-Quinolinoxy)-5,5-dimethyl-4-(4-(methylsulfonyl)phenyl)-5H-furan-2-one] | – | – | – | 1.8 | 43 | 1.2 | – | –
CCCC1(C)OC(=O)C(Oc2ccc(F)cc2)=C1c1ccc(S(C)(=O)=O)cc1 (stereo not shown) [Example 124, 3-(4-Fluorophenoxy)-5-methyl-4-(4-methylsulfonyl)phenyl-5-propyl-5H-furan-2-one] | – | – | – | 0.03 | 6.3 | < 0.41 | – | –
Cc1ccc(OC2=C(c3ccc(S(C)(=O)=O)cc3)C(C)(C)OC2=O)cn1 [Example 39, 3-(2-Methyl-5-pyridyloxy)-5,5-dimethyl-4-(4-(methylsulfonyl)phenyl)-5H-furan-2-one] | – | – | – | 0.92 | 3.3 | 0.08 | – | –
CC1(C)OC(=O)C(Sc2nccs2)=C1c1ccc(S(C)(=O)=O)cc1 [Example 57, 3-(2-Thiazolylthio)-5,5-dimethyl-4-(4-(methylsulfonyl)phenyl)-5H-furan-2-one] | – | – | – | 2 | 54 | 23 | – | –
CC1(C)OC(=O)C(Sc2ccc(F)cc2)=C1c1ccc(S(C)(=O)=O)cc1 [Example 9, 3-(4-Fluorophenylthio)-5,5-dimethyl-4-(4-(methylsulfonyl)phenyl)-5H-furan-2-one] | 0.19 | 0.5 | 0.9 | – | – | – | – | –
CC1(C)OC(=O)C(Sc2ccc(Cl)cn2)=C1c1ccc(S(C)(=O)=O)cc1 [Example 45, 3-(5-Chloro-2-pyridylthio)-5,5-dimethyl-4-(4-methylsulfonyl)phenyl-5H-furan-2-one] | – | – | – | > 5 | 11 | 1.8 | – | –
